From US20050197364A1, “Amide compounds as ion channel ligands and uses thereof” (priority 2003, published 2005)

tested on: VR1 receptor; test: High throughput calcium imaging assay (Fura2, Flex Station) of VR1 antagonists, pH 5.1 stimulus; assay type: cell-based; conditions: 1 uM compound; inhibition of calcium ion influx induced by capsaicin stimulation
Procedure: Therefore the functional activity of compounds at the VR1 receptor may be determined by measuring changes in intracellular calcium levels in 293 cells expressing capsaicin-insensitive VR1 receptor variants. A dual wavelength ratiometric dye, Fura2, was used as an indicator of relative levels of calcium ions in a 96 well format using a bench top scanning fluorometer with integrated fluidics and temperature control (Flex Station, Molecular Devices).
293 cells were grown on PDL coated 96-well black-walled plates, in the presence of a DMEM medium containing 5% Penstrep, 5% Glutamax, 200 ug/mL Hygromycin, 5 μg/mL Blasticide and 10% heat inactivated FBS. Prior to assay, the cells were loaded with 5 μg/mL Fura2 in normal saline solution at 37° C. for 40 minutes. Cells were then washed with normal saline to remove the dye.
The assay consists of two stages; a pre-treatment phase followed by a treatment phase.
50 μl of a compound solution was added to the cells (Pre-treatment). Immediately following, 50 μl of the test compound in a saline solution at pH 5.1 was added. Fura2 was excited at 340 and 380 nM to indicate relative calcium concentration. Changes in wavelength measurements were made throughout the course of the experiment in 4 second intervals over a period of 3 minutes. Responses were measured as peak fluorescence ratio after test compound addition minus baseline fluorescence ratio prior to pre-treatment and were calculated using SoftMaxPro softwareData were expressed as percentage inhibition calculated using Excel as follows: [formula]

| SMILES | % Inhibition @ 1 uM |
| --- | --- |
| CC(C)(C)c1ccc(NC(=O)c2ccc(-c3ncccc3Cl)cc2)cc1 [Compound 24] | + + + + (compound exhibited 75% or greater inhibition of calcium ion influx induced by capsaicin stimulation) |
| O=C(Nc1ccc(Cl)nc1)c1ccc(-c2ncccc2Cl)c(F)c1 [Compound 152] | + (compound exhibited 0-25% inhibition of calcium ion influx induced by capsaicin stimulation) |
| COc1ccc(NC(=O)c2ccc(-c3ncccc3Cl)cn2)cc1O [Compound 338] | + + (“+ +” compound exhibited 25-50% inhibition of calcium ion influx induced by capsaicin stimulation.) |
| O=C(Nc1ccncc1)c1ccc(-c2ncccc2Cl)c(F)c1 [Compound 140] | + + + + (compound exhibited 75% or greater inhibition of calcium ion influx induced by capsaicin stimulation) |
| O=C(Nc1cccnc1)c1ccc(-c2ncccc2Cl)cc1 [Compound 8] | + + + + (compound exhibited 75% or greater inhibition of calcium ion influx induced by capsaicin stimulation) |
| COc1cc(C(=O)Nc2ccc(F)c(F)c2)ccc1-c1ncccc1Cl [Compound 254] | + + + (“+ + +” compound exhibited 50-75% inhibition of calcium ion influx induced by capsaicin stimulation.) |
| COc1cc(C(=O)Nc2ccc(-c3cnc[nH]3)cc2)ccc1-c1ncccc1Cl [Compound 260] | + + + (“+ + +” compound exhibited 50-75% inhibition of calcium ion influx induced by capsaicin stimulation.) |
| Cc1ccnc(NC(=O)c2ccc(-c3ncccc3Cl)c(F)c2)c1 [Compound 145] | + + + + (compound exhibited 75% or greater inhibition of calcium ion influx induced by capsaicin stimulation) |
| O=C(Nc1ccc2ncccc2c1)c1ccc(-c2ncccc2Cl)cn1 [Compound 327] | + (“+” compound exhibited 0-25% inhibition of calcium ion influx induced by capsaicin stimulation.) |
| N#Cc1ccccc1NC(=O)c1ccc(-c2ncccc2Cl)cc1 [Compound 11] | + (compound exhibited 0-25% inhibition of calcium ion influx induced by capsaicin stimulation) |
| COc1cc(C(=O)Nc2cccc(OC(F)(F)F)c2)ccc1-c1ncccc1Cl [Compound 252] | + (“+” compound exhibited 0-25% inhibition of calcium ion influx induced by capsaicin stimulation.) |
| COc1cc(C(=O)Nc2ccncn2)ccc1-c1ncccc1Cl [Compound 225] | + + (“+ +” compound exhibited 25-50% inhibition of calcium ion influx induced by capsaicin stimulation.) |
| COc1cc(C(=O)NC(C)(C)C)ccc1-c1ncccc1Cl [Compound 187] | + (compound exhibited 0-25% inhibition of calcium ion influx induced by capsaicin stimulation) |
| O=C(Nc1ccncc1)c1ccc(-c2ncccc2Cl)cc1F [Compound 62] | + (compound exhibited 0-25% inhibition of calcium ion influx induced by capsaicin stimulation) |
| CCC(C)(C)NC(=O)c1ccc(-c2ncccc2Cl)cc1 [Compound 53] | + (compound exhibited 0-25% inhibition of calcium ion influx induced by capsaicin stimulation) |
| O=C(Nc1ccc(Cl)nc1)c1ccc(-c2ncccc2Cl)cc1 [Compound 31] | + (compound exhibited 0-25% inhibition of calcium ion influx induced by capsaicin stimulation) |
| COc1cccc(NC(=O)c2ccc(-c3ncccc3Cl)cc2F)c1 [Compound 74] | + (compound exhibited 0-25% inhibition of calcium ion influx induced by capsaicin stimulation) |
| COc1ccc(NC(=O)c2ccc(-c3ncccc3Cl)cc2)cn1 [Compound 32] | + (compound exhibited 0-25% inhibition of calcium ion influx induced by capsaicin stimulation) |
| O=C(Nc1ccc(OC(F)(F)F)cc1)c1ccc(-c2ncccc2Cl)cc1 [Compound 276] | + (“+” compound exhibited 0-25% inhibition of calcium ion influx induced by capsaicin stimulation.) |
| COc1cc(C(=O)Nc2cccc(C#N)c2)ccc1-c1ncccc1Cl [Compound 201] | + + + + (“+ + + +” compound exhibited 75% or greater inhibition of calcium ion influx induced by capsaicin stimulation.) |
| CCOC(=O)c1ccc(NC(=O)c2ccc(-c3ncccc3Cl)cn2)cc1 [Compound 333] | + (“+” compound exhibited 0-25% inhibition of calcium ion influx induced by capsaicin stimulation.) |
| COc1cc(NC(=O)c2ccc(-c3ncccc3Cl)cn2)cc(C(F)(F)F)c1 [Compound 311] | + (“+” compound exhibited 0-25% inhibition of calcium ion influx induced by capsaicin stimulation.) |
| CC(C)c1cccc(NC(=O)c2ccc(-c3ncccc3Cl)cc2F)c1 [Compound 69] | + (compound exhibited 0-25% inhibition of calcium ion influx induced by capsaicin stimulation) |
| CC(C)(C)c1ccc(NC(=O)c2ccc(-c3ncccc3Cl)cc2F)cc1 [Compound 86] | + (compound exhibited 0-25% inhibition of calcium ion influx induced by capsaicin stimulation) |
| O=C(Nc1nccs1)c1ccc(-c2ncccc2Cl)cc1 [Compound 38] | + (compound exhibited 0-25% inhibition of calcium ion influx induced by capsaicin stimulation) |
| O=C(Nc1ccc(OC(F)(F)F)cc1)c1ccc(-c2ncccc2Cl)c(F)c1 [Compound 175] | + + (compound exhibited 25-50% inhibition of calcium ion influx induced by capsaicin stimulation) |
| COc1ccc(NC(=O)c2ccc(-c3ncccc3Cl)cc2)cc1Cl [Compound 17] | + (compound exhibited 0-25% inhibition of calcium ion influx induced by capsaicin stimulation) |
| COc1ccc(NC(=O)c2ccc(-c3ncccc3Cl)cc2F)cc1Cl [Compound 79] | + + (compound exhibited 25-50% inhibition of calcium ion influx induced by capsaicin stimulation) |
| O=C(Nc1ccc2c(c1)OCO2)c1ccc(-c2ncccc2Cl)cc1 [Compound 34] | + (compound exhibited 0-25% inhibition of calcium ion influx induced by capsaicin stimulation) |
| O=C(Nc1cccc(OC(F)(F)F)c1)c1ccc(-c2ncccc2Cl)cc1 [Compound 277] | + (“+” compound exhibited 0-25% inhibition of calcium ion influx induced by capsaicin stimulation.) |

target: T1, VR1 receptor (Rattus norvegicus, UniProt O35433); test: Whole-cell patch clamp electrophysiology, capsaicin induced current in DRG neurons; assay type: cell-based; conditions: 20 nM, 40 nM, 100 nM and 200 nM
T1 construct: Dorsal root ganglion (DRG) neurons were recovered from either neonatal or adult rats; endogenous in cells; host or cells: primary rat dorsal root ganglion neurons
Procedure: Dorsal root ganglion (DRG) neurons were recovered from either neonatal or adult rats and plated onto poly-D-lysine coated glass coverslips. The plated neurons were transferred into a chamber to allow drug solutions to be added to the cells using a computer-controlled solenoid-valve based perfusion system. The cells were imaged using standard DIC optics. Cells were patched using finely-pulled glass electrodes. Voltage-clamp electrophysiology experiments were carried out using an Axon Instruments Multiclamp amplified controlled by pCLAMP8 software.
The cells were placed into a whole-cell voltage clamp and help at a voltage of −80 mV while monitoring the membrane current in gap-free recording mode. 500 nM capsaicin was added for 30 seconds as a control. Test compounds at various concentrations at ranging from (10-1000 nM) were added to the cells for 1 minute prior to a 30 second capsaicin application. Differences between control experiments and drug positive capsaicin experiments were used to determine the efficacy of each test compound. All compounds that inhibited capsaicin induced current greater than 50% were considered positives.

T1 sequence (O35433 whole entry): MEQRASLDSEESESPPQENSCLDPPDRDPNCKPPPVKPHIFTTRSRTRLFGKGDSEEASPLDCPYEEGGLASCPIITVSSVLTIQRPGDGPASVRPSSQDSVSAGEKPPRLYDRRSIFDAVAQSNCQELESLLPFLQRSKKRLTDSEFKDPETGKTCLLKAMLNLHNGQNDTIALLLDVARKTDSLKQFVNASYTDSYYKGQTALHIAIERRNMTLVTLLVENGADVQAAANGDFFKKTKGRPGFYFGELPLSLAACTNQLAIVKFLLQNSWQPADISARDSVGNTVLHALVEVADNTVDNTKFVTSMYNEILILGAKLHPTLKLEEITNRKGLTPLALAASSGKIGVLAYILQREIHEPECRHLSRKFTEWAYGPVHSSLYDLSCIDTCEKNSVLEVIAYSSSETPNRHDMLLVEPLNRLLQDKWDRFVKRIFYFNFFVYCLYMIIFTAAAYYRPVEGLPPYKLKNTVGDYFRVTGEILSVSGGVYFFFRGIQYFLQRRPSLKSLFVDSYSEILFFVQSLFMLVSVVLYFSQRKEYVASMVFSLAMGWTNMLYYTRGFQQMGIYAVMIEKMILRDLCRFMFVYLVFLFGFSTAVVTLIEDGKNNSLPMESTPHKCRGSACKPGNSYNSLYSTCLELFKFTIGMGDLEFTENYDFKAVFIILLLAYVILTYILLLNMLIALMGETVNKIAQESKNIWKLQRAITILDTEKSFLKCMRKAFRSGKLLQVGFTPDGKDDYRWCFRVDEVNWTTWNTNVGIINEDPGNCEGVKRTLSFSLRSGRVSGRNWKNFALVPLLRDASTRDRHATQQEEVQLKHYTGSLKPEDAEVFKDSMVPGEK

| SMILES | dose response of inhibiting a capsaicin induced calcium ion influx (FIG. 4) |
| --- | --- |
| CC(C)(C)c1ccc(NC(=O)c2ccc(-c3ncccc3Cl)cc2)cc1 [Compound 24] | increasing effectiveness |

same assay, conditions: DRG neuron; 200 nM compound, treatment time 25 seconds; 500 nM capsaicin; rat DRG neurons, -80 mV

| SMILES | inhibition at 0.2 µM [%] |
| --- | --- |
| CC(C)(C)c1ccc(NC(=O)c2ccc(-c3ncccc3Cl)cc2)cc1 [Compound 24] | 100 |
